Patent US9738604B2, “Ethynylbenzene derivatives” (Duke University, priority 2010, dated 2017)
In brackets after ≈: the same amount, converted by molar mass.

Key:
Type in all cases: cell-based
P. aeruginosa (PAO1) = experiment: MIC, P. aeruginosa; details: for MIC: Pseudomonas aeruginosa, PAO1, 22 h, read-out: MIC P. aeruginosa (PAO1); for MIC P. aeruginosa (PAO1): 22 hours at 37° C., MTT
E. coli W3110PA = experiment: microbe, parasite or virus in culture; details: for MIC: Escherichia coli, W3110PA, 22 h, read-out: MIC E. coli W3110PA; for MIC E. coli W3110PA: E. coli with lpxC of P. aeruginosa, 22 hours at 37° C., MTT
E. coli W3110RL = experiment: microbe, parasite or virus in culture; details: for MIC: Escherichia coli, W3110RL, 22 h, read-out: MIC E. coli W3110RL; for MIC E. coli W3110RL: E. coli with lpxC of R. leguminosarum, 22 hours at 37° C., MTT
E. coli W3110 = experiment: microbe, parasite or virus in culture; details: for MIC: Escherichia coli, W3110, 22 h, read-out: MIC E. coli W3110

Row | SMILES | MIC (P. aeruginosa (PAO1)) | MIC (E. coli W3110PA) | MIC (E. coli W3110RL) | MIC (E. coli W3110) | MIC P. aeruginosa (PAO1) (P. aeruginosa (PAO1)) | MIC E. coli W3110PA (E. coli W3110PA) | MIC E. coli W3110RL (E. coli W3110RL) | MIC E. coli W3110 (E. coli W3110)
1 | Nc1ccc(C#CC#Cc2ccc(C(=O)N[C@H](C(=O)NO)[C@@H](O)c3ccc(O)cc3)cc2)cc1 [CPD-050, 4-((4-aminophenyl)buta-1,3-diynyl)-N-((1S,2S)-1-hydroxy-3-(hydroxyamino)-1-(4-hydroxyphenyl)-3-oxopropan-2-yl)benzamide] | 1 to 10 µg/mL (≈ 2.2 to 22 µM) | < 1 µg/mL | 11 to 50 µg/mL (≈ 24.2 to 110 µM) | < 1 µg/mL | – | – | – | –
2 | Nc1ccccc1C#CC#Cc1ccc(C(=O)N[C@@H](Cc2c[nH]cn2)C(=O)NO)cc1 [CPD-016, (2S)-2-({4′-[4′-(2′-aminophenyl)buta-1′,3′-diyn-1′-yl]phenyl}formamido)-N-hydroxy-3′-(1′H-imidazol-4′-yl)propanamide] | > 100 µg/mL | 51 to 100 µg/mL (≈ 123 to 242 µM) | > 100 µg/mL | 1 to 10 µg/mL (≈ 2.42 to 24.2 µM) | – | – | – | –
3 | C[C@@](O)(C(F)F)[C@H](NC(=O)c1ccc(C#Cc2ccc(CN3CCOCC3)cc2)cc1)C(=O)NO [CPD-069, N-((2S,3S)-4,4-difluoro-3-hydroxy-1-(hydroxyamino)-3-methyl-1-oxobutan-2-yl)-4-((4-(morpholinomethyl)phenyl)ethynyl)benzamide] | 1 to 10 µg/mL (≈ 2.05 to 20.5 µM) | – | – | < 1 µg/mL | – | – | – | –
4 | Nc1cccc(C#CC#Cc2ccc(C(=O)N[C@@H](Cc3c[nH]cn3)C(=O)NO)cc2)c1 [CPD-015, (2S)-2-({4′-[4′-(3′-aminophenyl)buta-1′,3′-diyn-1′-yl]phenyl}formamido)-N-hydroxy-3-(1′H-imidazol-4′-yl)propanamide] | 1 to 10 µg/mL (≈ 2.42 to 24.2 µM) | 51 to 100 µg/mL (≈ 123 to 242 µM) | > 100 µg/mL | < 1 µg/mL | – | – | – | –
5 | C[C@H](O)[C@@H](NC(=O)c1ccc(C#CC#Cc2ccc(N)cc2)cc1)C(=O)NO [CPD-055, (2R,3S)-2-{4′-[(4″-aminophenyl)buta-1′,3′-diynyl]benzamido}-1,3-dihydroxybutanamide] | 11 to 50 µg/mL (≈ 29.1 to 132 µM) | 11 to 50 µg/mL (≈ 29.1 to 132 µM) | 51 to 100 µg/mL (≈ 135 to 265 µM) | 1 to 10 µg/mL (≈ 2.65 to 26.5 µM) | – | – | – | –
6 | C[C@@](N)(C(F)F)[C@H](NC(=O)c1ccc(C#Cc2ccc(CN3CCOCC3)cc2)cc1)C(=O)NO [CPD-080, N-((2S,3S)-3-amino-4,4-difluoro-1-(hydroxyamino)-3-methyl-1-oxobutan-2-yl)-4-((4-(morpholinomethyl)phenyl)ethynyl)benzamide] | < 1 µg/mL | – | – | < 1 µg/mL | – | – | – | –
7 | NCCCC[C@H](NC(=O)c1ccc(C#CC#Cc2ccc(N)cc2)cc1)C(=O)NO [CPD-032, (2S)-6-amino-2-({4′-[4′-(4′-aminophenyl)buta-1′,3′-diyn-1-yl]phenyl}formamido)-N-hydroxyhexanamide] | – | – | – | – | C (11-50 μg/mL) | C (11-50 μg/mL) | D (51-100 μg/mL) | C (key: A: <1 μg/mL; B: 1-10 μg/mL; C: 11-50 μg/mL; D: 51-100 μg/mL; E: >100 μg/mL)
8 | C[C@@](N)(C(F)F)C(NC(=O)c1ccc(C#CC#Cc2ccc(N)cc2)cc1)C(=O)NO (stereo partly drawn) [CPD-079, N-((3S)-3-amino-4,4-difluoro-1-(hydroxyamino)-3-methyl-1-oxobutan-2-yl)-4-((4-aminophenyl)buta-1,3-diynyl)benzamide] | < 1 µg/mL | – | – | < 1 µg/mL | – | – | – | –
9 | CC[C@@H](C)[C@H](NC(=O)c1ccc(C#CC#Cc2ccc(N)cc2)cc1)C(=O)NO [CPD-023, (2S,3R)-2-({4′-[4′-(4′-aminophenyl)buta-1′,3′-diyn-1-yl]phenyl}formamido)-N-hydroxy-3-methylpentanamide] | – | – | – | – | D (51-100 μg/mL) | B (1-10 μg/mL) | C (11-50 μg/mL) | A (key: A: <1 μg/mL; B: 1-10 μg/mL; C: 11-50 μg/mL; D: 51-100 μg/mL; E: >100 μg/mL)
10 | Nc1ccc(C#CC#Cc2ccc(C(=O)N[C@@H](CC(=O)O)C(=O)NO)cc2)cc1 [CPD-019, (3S)-3-({4′-[4′-(4′-aminophenyl)buta-1′,3′-diyn-1′-yl]phenyl}formamido)-3-(hydroxycarbamoyl)propane acid] | – | – | – | – | E (>100 μg/mL) | E (>100 μg/mL) | E (>100 μg/mL) | D (key: A: <1 μg/mL; B: 1-10 μg/mL; C: 11-50 μg/mL; D: 51-100 μg/mL; E: >100 μg/mL)
11 | C[C@](O)(c1ccc(CO)cc1)[C@H](NC(=O)c1ccc(C#CC#Cc2ccc(N)cc2)cc1)C(=O)NO [CPD-062, 4-((4-aminophenyl)buta-1,3-diynyl)-N-((2S,3S)-3-hydroxy-1-(hydroxyamino)-3-(4-(hydroxymethyl)phenyl)-1-oxobutan-2-yl)benzamide] | 1 to 10 µg/mL (≈ 2.07 to 20.7 µM) | < 1 µg/mL | 51 to 100 µg/mL (≈ 105 to 207 µM) | < 1 µg/mL | – | – | – | –
12 | C[C@@H](O)[C@H](NC(=O)c1ccc(C#CC#Cc2ccc(N)cc2)cc1)C(N)=O [CPD-047, N-((2S,3R)-1-amino-3-hydroxy-1-oxobutan-2-yl)-4-((4-aminophenyl)buta-1,3-diynyl)benzamide] | 51 to 100 µg/mL (≈ 141 to 277 µM) | 51 to 100 µg/mL (≈ 141 to 277 µM) | 51 to 100 µg/mL (≈ 141 to 277 µM) | 1 to 10 µg/mL (≈ 2.77 to 27.7 µM) | – | – | – | –
13 | C[C@@H](O)[C@H](NC(=O)c1ccc(C#CC#Cc2ccccc2)cc1)C(=O)NO [CPD-009, N-((2S,3R)-3-hydroxy-1-(hydroxyamino)-1-oxobutan-2-yl)-4-(phenylbuta-1,3-diynyl)benzamide] | < 1 µg/mL | < 1 µg/mL | 1 to 10 µg/mL (≈ 2.76 to 27.6 µM) | < 1 µg/mL | – | – | – | –
14 | N=C(N)NCCC[C@H](NC(=O)c1ccc(C#CC#Cc2ccc(N)cc2)cc1)C(=O)NO [CPD-034, (2S)-2-({4′-[4′-(4′-aminophenyl)buta-1′,3′-diyn-1-yl]phenyl}formamido)-5′-carbamimidamido-N-hydroxypentanamide] | – | – | – | – | C (11-50 μg/mL) | D (51-100 μg/mL) | D (51-100 μg/mL) | C (key: A: <1 μg/mL; B: 1-10 μg/mL; C: 11-50 μg/mL; D: 51-100 μg/mL; E: >100 μg/mL)
15 | C[C@@H](O)[C@H](NC(=O)c1ccc(C#CC#Cc2ccc(N)cc2)cc1)C(=O)NN [CPD-045, 4-((4-aminophenyl)buta-1,3-diynyl)-N-((2S,3R)-1-hydrazinyl-3-hydroxy-1-oxobutan-2-yl)benzamide] | 51 to 100 µg/mL (≈ 135 to 266 µM) | 51 to 100 µg/mL (≈ 135 to 266 µM) | 51 to 100 µg/mL (≈ 135 to 266 µM) | 1 to 10 µg/mL (≈ 2.66 to 26.6 µM) | – | – | – | –
16 | C[C@@H](O)[C@H](NC(=O)c1ccc(C#CCOc2ccc(N)cc2)cc1)C(=O)NO [CPD-059, 4-(3-(4-aminophenoxy)prop-1-ynyl)-N-((2S,3R)-3-hydroxy-1-(hydroxyamino)-1-oxobutan-2-yl)benzamide] | 11 to 50 µg/mL (≈ 28.7 to 130 µM) | 11 to 50 µg/mL (≈ 28.7 to 130 µM) | 51 to 100 µg/mL (≈ 133 to 261 µM) | 1 to 10 µg/mL (≈ 2.61 to 26.1 µM) | – | – | – | –
17 | Nc1ccc(C#CC#Cc2ccc(C(=O)N[C@@H](Cc3ccccc3)C(=O)NO)cc2)cc1 [CPD-025, (2S)-2-({4′-[4′-(4′-aminophenyl)buta-1′,3′-diyn-1′-yl]phenyl}formamido)-N-hydroxy-3-phenylpropanamide] | – | – | – | – | D (51-100 μg/mL) | E (>100 μg/mL) | E (>100 μg/mL) | B (key: A: <1 μg/mL; B: 1-10 μg/mL; C: 11-50 μg/mL; D: 51-100 μg/mL; E: >100 μg/mL)
18 | Nc1ccc(C#CC#Cc2ccc(C(=O)N[C@H](C(=O)NO)[C@H](O)C(F)(F)F)cc2)cc1 [CPD-057, 4-((4-aminophenyl)buta-1,3-diynyl)-N-((2S,3S)-4,4,4-trifluoro-3-hydroxy-1-(hydroxyamino)-1-oxobutan-2-yl)benzamide] | < 1 µg/mL | < 1 µg/mL | 51 to 100 µg/mL (≈ 118 to 232 µM) | < 1 µg/mL | – | – | – | –
19 | C[C@](O)(c1c[nH]nn1)C(NC(=O)c1ccc(C#CC#Cc2ccc(N)cc2)cc1)C(=O)NO (stereo partly drawn) [CPD-072, 4-((4-aminophenyl)buta-1,3-diynyl)-N-((3R)-3-hydroxy-1-(hydroxyamino)-1-oxo-3-(1H-1,2,3-triazol-4-yl)butan-2-yl)benzamide] | < 1 µg/mL | – | – | < 1 µg/mL | – | – | – | –
20 | Nc1ccc(C#CC#Cc2ccc(C(=O)N[C@H](C(=O)NO)[C@H](O)C(F)F)cc2)cc1 [CPD-056, 4-((4-aminophenyl)buta-1,3-diynyl)-N-((2S,3S)-4,4-difluoro-3-hydroxy-1-(hydroxyamino)-1-oxobutan-2-yl)benzamide] | < 1 µg/mL | < 1 µg/mL | 1 to 10 µg/mL (≈ 2.42 to 24.2 µM) | < 1 µg/mL | – | – | – | –
21 | CC(N)C(C(=O)NO)c1c[nH]c2cc(C#CC#Cc3ccc(N)cc3)ccc12 (stereo not shown) [CPD-042, 3-amino-2-{6′-[4′-(4′-aminophenyl)buta-1′,3′-diyn-1′-yl]-1′H-indol-3′-yl}-N-hydroxybutanamide] | 51 to 100 µg/mL (≈ 137 to 269 µM) | 51 to 100 µg/mL (≈ 137 to 269 µM) | 51 to 100 µg/mL (≈ 137 to 269 µM) | 1 to 10 µg/mL (≈ 2.69 to 26.9 µM) | – | – | – | –
22 | C[C@H](NC(=O)c1ccc(C#CC#Cc2ccc(N)cc2)cc1)C(=O)NO [CPD-020, (2S)-2-({4′-[4′-(4′-aminophenyl)buta-1′,3′-diyn-1′-yl]phenyl}formamido)-N-hydroxypropanamide] | – | – | – | – | C (11-50 μg/mL) | B (1-10 μg/mL) | B (1-10 μg/mL) | A (key: A: <1 μg/mL; B: 1-10 μg/mL; C: 11-50 μg/mL; D: 51-100 μg/mL; E: >100 μg/mL)
23 | C[C@@H](O)[C@H](NC(=O)c1ccc(C#CC#CCN(C)C)cc1)C(=O)NO [CPD-007, 4-(5-(dimethylamino)penta-1,3-diynyl)-N-((2S,3R)-3-hydroxy-1-(hydroxyamino)-1-oxobutan-2-yl)benzamide] | 1 to 10 µg/mL (≈ 2.91 to 29.1 µM) | 1 to 10 µg/mL (≈ 2.91 to 29.1 µM) | > 100 µg/mL | 1 to 10 µg/mL (≈ 2.91 to 29.1 µM) | – | – | – | –
24 | CCCc1cc(C2=N[C@@H](C(=O)NO)CO2)cc(OC)c1OC | – | > 100 µg/mL | > 100 µg/mL | – | – | – | – | –
25 | Nc1ccc(C#CC#Cc2ccc(C(=O)N[C@@H]3CN(O)C3=O)cc2)cc1 [CPD-071, (R)-4-((4-aminophenyl)buta-1,3-diynyl)-N-(1-hydroxy-2-oxoazetidin-3-yl)benzamide] | 51 to 100 µg/mL (≈ 148 to 290 µM) | – | – | 1 to 10 µg/mL (≈ 2.9 to 29 µM) | – | – | – | –
